Experimental data reported in ChEMBL document CHEMBL5512597, “Triazole hybrid compounds: A new frontier in malaria treatment” (Eur J Med Chem, 2023).
Values after ≈ are worked out from the molar mass of the structure shown.

Tests used:
Plasmodium falciparum [1] = assay: Antimalarial activity against Plasmodium falciparum […] incubated for 48 hrs; type: functional, organism-based
Plasmodium falciparum [2] = assay: Antimalarial activity against Plasmodium falciparum 3D7 assessed as inhibition of parasite proliferation; type: functional, organism-based
Plasmodium falciparum [3] = assay: Antiplasmodial activity against Plasmodium falciparum 3D7 at asexual erythrocytic stage infected in human erythrocytes assessed as parasite growth inhibition incubated for 42 hrs by [3H]-hypoxanthine incorporation assay; type: functional, organism-based; details: 3D7, Erythrocyte
Plasmodium falciparum [4] = assay: Antimalarial activity against Plasmodium falciparum 3D7 at asexual stage infected in erythrocytes assessed as parasite growth inhibition incubated for 72 hrs by MSF assay; type: functional, organism-based; details: 3D7, Erythrocyte
[5] = Cytotoxicity against African green monkey Vero cells after 72 hrs by MTT assay; type: toxicity, cell-based; details: chlorocebus sabaeus
Plasmodium falciparum [6] = assay: Antimalarial activity against CQ-resistant Plasmodium falciparum W2 assessed as parasite growth inhibition by LDH assay; type: functional, organism-based
Plasmodium falciparum [7] = assay: Antimalarial activity against CQ-sensitive Plasmodium falciparum D6 assessed as parasite growth inhibition by LDH assay; type: functional, organism-based
[8] = Cytotoxicity against African green monkey Vero cells; type: toxicity, cell-based; details: chlorocebus sabaeus
Plasmodium falciparum [9] = assay: Antiplasmodial activity against CQ-sensitive Plasmodium falciparum NF54; type: functional, organism-based
Plasmodium falciparum [10] = assay: Antimalarial activity against Plasmodium falciparum 3D7 assessed as inhibition of parasitemia incubated for 72 hrs by fluorescence based assay; type: functional, organism-based; details: 3D7, 72 h
Plasmodium falciparum [11] = assay: Antiplasmodial activity against CQ-sensitive Plasmodium falciparum F32 Tanzania assessed as parasite growth inhibition incubated for 48 hrs; type: functional, organism-based
Plasmodium falciparum [12] = assay: Antiplasmodial activity against CQ-sensitive Plasmodium falciparum NF54 at asexual stage assessed as parasite growth inhibition; type: functional, organism-based
Plasmodium falciparum [13] = assay: Antiplasmodial activity against Plasmodium falciparum K1 at asexual stage assessed as parasite growth inhibition; type: functional, organism-based
Plasmodium falciparum [14] = assay: Antimalarial activity against CQ-resistant Plasmodium falciparum K1 infected in human O+ erythrocytes assessed as parasite growth inhibition incubated for 48 hrs by SYBR Green I staining based analysis; type: functional, organism-based; details: K1, Erythrocyte
Plasmodium falciparum [15] = assay: Antimalarial activity against CQ-sensitive Plasmodium falciparum 3D7 infected in human O+ erythrocytes assessed as parasite growth inhibition incubated for 48 hrs by SYBR Green I staining based analysis; type: functional, organism-based; details: 3D7, Erythrocyte
Plasmodium falciparum [16] = assay: Antimalarial activity against Plasmodium falciparum 3D7 infected in erythrocytes assessed as parasite growth inhibition incubated for 42 hrs by [3H]-hypoxanthine incorporation assay; type: functional, organism-based; details: 3D7, Erythrocyte
[17] = Inhibition of Plasmodium falciparum SR21
Plasmodium falciparum [18] = assay: Antimalarial activity against Plasmodium falciparum W2 assessed as parasite growth inhibition; type: functional, organism-based

With `COc1ccc(-c2cc(-c3c(C)nn(-c4ccccc4)c3-n3cncn3)n3c(n2)nc2ccccc23)cc1` as the compound, how does the IC50 (Plasmodium falciparum [1]) read?
The IC50 was 1.45 µg/mL (≈ 2.91 µM).

For `CCCCCc1cn(CCNC(=O)[C@H](O)C(C)(C)CO)nn1`, which IC50 (Plasmodium falciparum [2]) is on record?
The IC50 was 8.5 µM.

Which IC50 (Plasmodium falciparum [3]) does the source give for `Cc1ccc(OCc2cn(-c3ccc(S(N)(=O)=O)cc3)nn2)cc1` here?
The IC50 was over 50 µg/mL.

With `Cc1nn(-c2ccccc2)c(-n2cncn2)c1-c1cc(-c2ccccc2)nc2nc3ccccc3n12` as the compound, how does the IC50 (Plasmodium falciparum [1]) read?
Its IC50 is 1.45 µg/mL (≈ 3.09 µM).

Which IC50 (Plasmodium falciparum [4]) does the source give for `O=C(Cn1cc(COc2ccc(Cl)cc2)nn1)NCCNc1ccnc2cc(Cl)ccc12` here?
The IC50 was 40 nM.

And the CC50 at 72 h [5]?
Its CC50 at 72 h is 86.8 µM.

For `O=C1c2nnn(Cc3cccc(F)c3)c2C(=O)c2nnn(Cc3cccc(F)c3)c21`, which IC50 (Plasmodium falciparum [6]) is on record?
Its IC50 is 583 nM.

And the IC50 (Plasmodium falciparum [7])?
The IC50 was 679 nM.

With `NS(=O)(=O)c1ccc(-n2cc(COc3ccccc3)nn2)cc1` as the compound, how does the IC50 (Plasmodium falciparum [3]) read?
The IC50 was 15 µg/mL (≈ 45.4 µM).

Which CC50 [8] does the source give for `CC(=O)c1ccc(-n2cc(COC(=O)[C@@]3(C)CC[C@]4(C)CC[C@]5(C)C(=CC(=O)[C@@H]6[C@@]7(C)CC[C@H](O)C(C)(C)[C@@H]7CC[C@]65C)[C@@H]4C3)nn2)cc1` here?
The CC50 was 226 µM.

What about the IC50 (Plasmodium falciparum [9]) of the same compound?
The IC50 was over 10 µM.

What does the source list for `O=C(Cn1cc(COc2ccc(Br)cc2)nn1)NCCNc1ccnc2cc(Cl)ccc12`?
IC50 (Plasmodium falciparum [4]): 40 nM; CC50 at 72 h [5]: 28.9 µM

Which IC50 (Plasmodium falciparum [3]) does the source give for `Cc1cc(C)nc(NS(=O)(=O)c2ccc(-n3cc(COc4ccccc4)nn3)cc2)n1` here?
The IC50 was over 50 µg/mL.

For `CC1(C)[C@@H](O)CC[C@]2(C)[C@H]3C(=O)C=C4[C@@H]5C[C@@](C)(C(=O)OCc6cn(-c7ccc(F)cc7)nn6)CC[C@]5(C)CC[C@@]4(C)[C@]3(C)CC[C@@H]12`, which CC50 [8] is on record?
Its CC50 is 226 µM.

And the IC50 (Plasmodium falciparum [9])?
The IC50 was 8.82 µM.

For `CCOCc1cn(-c2ccc(Cl)cc2)nn1`, which IC50 (Plasmodium falciparum [10]) is on record?
Its IC50 is 11.7 µM.

Which IC50 (Plasmodium falciparum [1]) does the source give for `Cc1ccc(-c2cc(-c3c(C)nn(-c4ccccc4)c3-n3cncn3)n3c(n2)nc2ccccc23)cc1` here?
The IC50 was 1.5 µg/mL (≈ 3.11 µM).

Which IC50 (Plasmodium falciparum [2]) does the source give for `CCCn1cc(CCNC(=O)[C@H](O)C(C)(C)CO)nn1` here?
Its IC50 is 5.3 µM.

For `O=C1C=C(OCc2cn(-c3ccc(CO)cc3)nn2)C(=O)c2ccccc21`, which IC50 (Plasmodium falciparum [11]) is on record?
The IC50 was 9.7 µM.

With `O=C(Cn1cc(COc2ccc(Br)cc2)nn1)NCCCNc1ccnc2cc(Cl)ccc12` as the compound, how does the CC50 at 72 h [5] read?
The CC50 at 72 h was 27.1 µM.

Which results are given for `COC(=O)C1=C(Cn2cc(CNc3ccnc4cc(Cl)ccc34)nn2)NC(=O)NC1c1ccc(F)cc1` (stereo not given)?
IC50 (Plasmodium falciparum [12]): 217 nM; IC50 (Plasmodium falciparum [13]): 551 nM

With `Clc1ccc(-n2cc(-c3cncc4ccccc34)nn2)cc1` as the compound, how does the IC50 (Plasmodium falciparum [14]) read?
Its IC50 is 4.55 µM.

And the IC50 (Plasmodium falciparum [15])?
The IC50 was 36.9 µM.

For `COc1ccc2cc3[n+](cc2c1OCc1cn(-c2ccc(S(=O)(=O)N4CCOCC4)cc2)nn1)CCc1cc2c(cc1-3)OCO2.[Cl-]`, which IC50 (Plasmodium falciparum [16]) is on record?
Its IC50 is 0.5 µg/mL.

For `O=C(OCc1cnn(-c2ccccc2)n1)c1ccccc1`, which IC50 (Plasmodium falciparum [10]) is on record?
The IC50 was 27.5 µM.

With `O/N=C/c1cn(-c2ccc(Cl)cc2)nn1` as the compound, how does the IC50 (Plasmodium falciparum [10]) read?
The IC50 was 6.67 µM.

And the IC50 [17]?
Its IC50 is 890 nM.

For `COc1ccc2cc3[n+](cc2c1OCc1cn(-c2ccc(S(=O)(=O)N4CCN(c5ccccn5)CC4)cc2)nn1)CCc1cc2c(cc1-3)OCO2.[Cl-]`, which IC50 (Plasmodium falciparum [16]) is on record?
The IC50 was 1 µg/mL.

For `Cc1nn(-c2ccccc2)c(-n2cncn2)c1C=O`, which IC50 (Plasmodium falciparum [1]) is on record?
The IC50 was 1.32 µg/mL (≈ 5.21 µM).

Which IC50 (Plasmodium falciparum [18]) does the source give for `C=C[C@H]1CN2CC[C@H]1C[C@H]2[C@H](c1ccnc2ccccc12)n1cc(C(C)(C)O)nn1` here?
Its IC50 is 2.59 µM.

With `C=C[C@H]1CN2CC[C@H]1C[C@H]2[C@H](c1ccnc2ccccc12)n1cc(CO)nn1` as the compound, how does the IC50 (Plasmodium falciparum [18]) read?
Its IC50 is 6.82 µM.

For `Cc1cccc(Cn2nnc3c2C(=O)c2nnn(Cc4cccc(C)c4)c2C3=O)c1`, which IC50 (Plasmodium falciparum [6]) is on record?
The IC50 was 6610 nM.

And the IC50 (Plasmodium falciparum [7])?
Its IC50 is 8370 nM.

For `Cc1nn(-c2ccccc2)c(-n2cncn2)c1-c1cc(-c2cccs2)nc2nc3ccccc3n12`, which IC50 (Plasmodium falciparum [1]) is on record?
Its IC50 is 0.83 µg/mL (≈ 1.75 µM).

What does the source list for `CC1(C)[C@@H](O)CC[C@]2(C)[C@H]3C(=O)C=C4[C@@H]5C[C@@](C)(C(=O)OCc6cn(-c7ccc(C#N)cc7)nn6)CC[C@]5(C)CC[C@@]4(C)[C@]3(C)CC[C@@H]12`?
CC50 [8]: 190 µM; IC50 (Plasmodium falciparum [9]): 1.14 µM

With `COc1ccc2cc3[n+](cc2c1OCc1cn(-c2ccc(S(=O)(=O)N4CCN(C)CC4)cc2)nn1)CCc1cc2c(cc1-3)OCO2.[Cl-]` as the compound, how does the IC50 (Plasmodium falciparum [16]) read?
Its IC50 is 0.8 µg/mL.

Which IC50 (Plasmodium falciparum [3]) does the source give for `NS(=O)(=O)c1ccc(-n2cc(COc3ccc(F)cc3)nn2)cc1` here?
The IC50 was 15.4 µg/mL (≈ 44.2 µM).

For `C=C[C@H]1CN2CC[C@H]1C[C@H]2[C@H](c1ccnc2ccccc12)n1cc(C(C)(C)N)nn1`, which IC50 (Plasmodium falciparum [18]) is on record?
The IC50 was 4.62 µM.

For `Cc1nn(-c2ccccc2)c(-n2cncn2)c1-c1cc(-c2ccc(O)cc2)nc2nc3ccccc3n12`, which IC50 (Plasmodium falciparum [1]) is on record?
Its IC50 is 0.054 µg/mL (≈ 0.111 µM).

What does the source list for `O=C1c2nnn(Cc3cccc([N+](=O)[O-])c3)c2C(=O)c2nnn(Cc3cccc([N+](=O)[O-])c3)c21`?
IC50 (Plasmodium falciparum [6]): 2890 nM; IC50 (Plasmodium falciparum [7]): 1910 nM

For `COc1ccc2cc3[n+](cc2c1OCc1cn(-c2ccc(S(=O)(=O)Nc4ccc(Cl)cc4)cc2)nn1)CCc1cc2c(cc1-3)OCO2.[Cl-]`, which IC50 (Plasmodium falciparum [16]) is on record?
Its IC50 is 0.1 µg/mL.
